Laboratory results as given in US9420770B2, “Methods of modulating thrombocytopenia and modified transgenic pigs” (Indiana University Research and Technology Corporation, priority 2009, dated 2016).

Columns and labels:
Type in all cases: cell-based, pig
[1] = tested on: Domestic and GTKO/hDAF LSEC cultures; experiment: Inhibition of platelet phagocytosis assay: fetuin / asialofetuin, CFSE-labeled human platelets; conditions: LSECs from domestic or GTKO/hDAF pigs; 0.5-20 μg/ml; FIG. 15 panel A
Description: Fetuin, a glycoprotein composed of sialic acid terminated galactose β1, −4 N-acetylglucosamine (Galβ) oligosaccharides, and asialofetuin, a derivative of fetuin lacking the terminal sialic acid saccharides and with exposed Galβ oligosaccharides were utilized to evaluate platelet binding. Domestic (n=2-5) and GTKO/hDAF (n=5) LSEC cultures were established. Cultures were incubated with 0.5, 2.5, 5, 10 or 20 μg/ml fetuin or asialofetuin. After incubations, CFSE-labeled human platelets were added to the cultures. Platelet binding and phagocytosis was measured using a spectromax plate reader. The percent of platelet binding was calculated.

[2] = tested on: LSEC; experiment: High-throughput fluorescent 96-well phagocytosis assay (ELISA based fluorescent assay) with platelets and LSEC; conditions: compound at 5 mg/ml, 0.5 mg/ml or none, FIG. 9 panel B
Description: A high-throughput fluorescent 96-well phagocytosis assay was performed using human and baboon platelets and LSEC. The compounds of interest asialofeutin or feutin were added to the samples. Experiments were performed with reduced calcium or in the presence of the chelating agent, EDTA.

[3] = tested on: ASGR1 mRNA; experiment: siRNA reduction of ASGR1: transcript levels by quantitative PCR; conditions: 48 hours after siRNA treatment
Description: RNA extraction was performed on cultured LSEC and tissues harvested from domestic and GTKO/hDAF pigs. Total RNA was extracted from LSEC and low-fiber tissues using the RNeasy Minikit (Qiagen, Valencia Calif.). RNA from fiber-rich tissue was isolated using the RNeasy fibrous tissue kit (Qiagen, Valencia Calif.). RNA quality was assessed using an Agilent 2100 Bioanalyzer (Biotechnology Research and Training Center IUPUI). Reverse transcription was performed using Quantitect Reverse Transcription kit (Qiagen, Valencia Calif.). Presence/absence experiments of endogenous mRNA were performed on a 9700 Applied Biosystems™ cycler. Products were run using Quantitect Sybr Green (Qiagen, Valencia Calif.). Endogenous mRNA levels were measured by real-time quantitative PCR analysis on a STEP-ONE PLUS (Applied Biosystems™, Carlsbad Calif.) real time PCR system and comparative CT analysis was performed. Gene expression assays for porcine ASGR1 and β-actin AI6RMY and SSO 3376160-u1 (Applied Biosystems™, Carlsbad Calif.) were used. […]
(§1) siRNA sense and antisense oligos were designed to the mRNA sequence of ASGR1 (FIG. 17C). […] ASGR1 transcript levels were determined by quantitative PCR. ASGR1 protein levels were analyzed.

[4] = tested on: porcine primary LSECs; experiment: Platelet phagocytosis assay with siRNA treated LSECs; conditions: 48 hours after siRNA treatment, n=3
Description: Primary LSECs were cultured in black walled-clear bottomed, cell culture treated 96-well plates (approximately 100,000 cells/well). The plated cells were incubated at 37° C. and 5% CO2 for four, five or six days as indicated. Four million CFSE-labeled platelets were added to wells in 96 well plates containing primary LSEC and media. Plates were centrifuged at 2000×g to synchronize the wells. At predetermined time points, the incubations were stopped. Duplicate wells for each time point were washed with PBS three times. After washing, the cells were incubated with 4% paraformaldehyde-PBS solution for 20 minutes to fix the cells. The wells were washed with PBS. 50 μl PBS was placed in each well. After obtaining the timepoints, the plates were read for fluorescence using a Spectra Max M2e plate reader (Molecular Devices Co.) set to read 9 different points within each well. Wells with LSECs and without CFSE-labeled platelets were used to determine the auto-fluorescence of LSECs. Data points from at least three separate porcine LSEC experiments were averaged and the standard deviation was obtained.
siRNA sense and antisense oligos were designed to the mRNA sequence of ASGR1 (FIG. 17C). […] ASGR1 transcript levels were determined by quantitative PCR. ASGR1 protein levels were analyzed. […]

[5] = tested on: ASGR1 protein; experiment: siRNA reduction of ASGR1: protein levels by immunoblotting; conditions: 48 hours after siRNA treatment
Description: LSECs were resuspended in Laemmli sample buffer with protease arrest (G-bioscience™, Maryland Heights Mo.). Samples were electrophoresed on SDS-polyacrylamide gels (SDS-PAGE). Polypeptides were transferred to membranes for immunoblot or lectin blot analysis. Membranes were blocked by incubation with 50% Odyssey blocking buffer (LI-COR Biosciences™, Lincoln Nebr.) in phosphate buffered saline (PBS) for approximately one hour. Membranes were incubated with anti-ASGR1 (Santa Cruz Biotechnologies™, Santa Cruz Calif.), anti-GAPDH (Millipore™, Billerica Mass., MAB374), anti-β-actin (Rockland Immunochemicals for Research, Gilbertsville Pa.), or anti-CD42b (Santa Cruz Biotechnologies™, SC-13467) according to the manufacturer's recommended protocol. Membranes were also incubated with ECA-biotin (EY Laboratories San Mateo Calif.) in a calcium containing buffer. Following primary antibody or lectin binding, membranes were washed. Membranes were incubated with the appropriate secondary antibody or streptavidin conjugated to either IRDye 800CW or IRDye680CW (LI-Cor Biosciences™). […] Protein bands were quantified by intensity using the LI-COR software.
as §1

| Substance | percent of human platelet binding by LSECs [1] | inhibition of binding of baboon platelets (RFI) [2] | inhibition of binding of human platelets (RFI) [2] | ASGR1 mRNA levels relative to non-specifically treated cells (siGenome) ([3]; GTKO/hDAF LSECs) | ASGR1 mRNA levels relative to non-specifically treated cells (siGenome) ([3]; domestic LSECs) | platelet phagocytosis compared to siGenome transfected LSECs ([4]; GTKO/hDAF LSECs) | platelet phagocytosis compared to siGenome transfected LSECs ([4]; domestic LSECs) | ASGR1 protein levels relative to non-specifically treated cells (siGenome) ([5]; GTKO/hDAF LSECs) | ASGR1 protein levels relative to non-specifically treated cells (siGenome) ([5]; domestic LSECs) |
| --- | --- | --- | --- | --- | --- | --- | --- | --- | --- |
| asialofetuin | significantly reduced | inhibits binding | inhibits binding |  |  |  |  |  |  |
| Fetuin |  | not feutin inhibits binding | not feutin inhibits binding |  |  |  |  |  |  |
| ASGR1 siRNA: double-stranded siRNA to ASGR1 mRNA; sense strand SEQ ID NO:11, antisense strand SEQ ID NO:12 (sense CAGCAUGCAGGGAGGAAAUUU; antisense AUUUCCUCCCUGCAUGCUGUU; chemistry not given here) |  |  |  | 20% | 56% | 69% | 79% | 87% | 80% |
